Experimental data as given in patent publication US20120225937A1, “CRYSTALLINE FORMS AND PROCESSES FOR THE PREPARATION OF PG12 RECEPTOR AGONISTS” (Arena Pharmaceuticals, Inc., priority 2009, published 2012).
Structures can show the parent of a compound that is named as a salt.

Assay: Dynamic moisture sorption (DMS) analysis of crystalline forms
Type: physicochemical
Details: for DMS: weight picked up at 90% RH / DMS: increase of weight at about 90% relative humidity: isotherm 25° C.; for DMS: increase of weight at about 90% relative humidity: physical-property summary tables; for Hygroscopicity by DMS (in words): up to 90% RH; for Change of crystal form during DMS analysis (in words): high % RH
Description: Further characterization with respect to hygroscopicity of the crystalline forms can be gauged by, for example, dynamic moisture sorption (DMS). The DMS features reported herein can vary by plus or minus about 5% relative humidity. The DMS features reported herein can also vary by plus or minus about 5% weight change.
Samples are prepared for dynamic moisture-sorption analysis by placing ˜5 mg to ˜20 mg of compound in a tarred sample holder on the VTI balance. The instrument is a dynamic moisture-sorption analyzer, VTI Corporation, SGA-100, equipment #0228. A drying step is run at 40° C. and ˜1% RH for 1 h. The isotherm temperature is 25° C. A % weight change over 10 min (5 weight readings) of dm/dt=0.010 or 2 h, whichever occurs first, is required before continuing to the next step. The water content of the sample equilibrated as described above was determined from 30% RH to 90% RH and then back down to 10% RH.

| Structure (SMILES) | DMS: weight picked up at 90% RH | DMS: increase of weight at about 90% relative humidity | Hygroscopicity by DMS (in words) | Change of crystal form during DMS analysis (in words) |
| --- | --- | --- | --- | --- |
| N=C(N)NCCC[C@H](N)C(=O)O.O.O=C(COC[C@H]1CC[C@H](COC(=O)N(c2ccccc2)c2ccc(Cl)cc2)CC1)NCCS(=O)(=O)O [Compound Ia L-arginine salt hydrate, L-arginine 2-(2-(((1r,4r)-4-(((4-chlorophenyl)(phenyl)carbamoyloxy)methyl)cyclohexyl)methoxy)acetamido)ethanesulfonate hydrate] | about 1 % by weight | FIG. 31: Increase of about 1% weight at about 90% relative | slightly hygroscopic |  |
| O.O=C(COC[C@H]1CC[C@H](COC(=O)N(c2ccccc2)c2ccc(Cl)cc2)CC1)NCCS(=O)(=O)[O-].O=C(COC[C@H]1CC[C@H](COC(=O)N(c2ccccc2)c2ccc(Cl)cc2)CC1)NCCS(=O)(=O)[O-].[Ca+2] [Compound Ia calcium salt hydrate I, calcium 2-(2-(((1r,4r)-4-(((4-chlorophenyl)(phenyl)carbamoyloxy)methyl)cyclohexyl)methoxy)acetamido)ethanesulfonate hydrate I] | about 7 % by weight | FIG. 17: Increase of 7% weight at about 90% relative humidity | hygroscopic | converting to Compound Ia calcium salt hydrate IV |
| O.O=C(COC[C@H]1CC[C@H](COC(=O)N(c2ccccc2)c2ccc(Cl)cc2)CC1)NCCS(=O)(=O)O [Compound Ia free acid hydrate, 2-(2-(((1r,4r)-4-(((4-chlorophenyl)(phenyl)carbamoyloxy)methyl)cyclohexyl)methoxy)acetamido)ethanesulfonic acid hydrate] | over 10 % by weight | FIG. 3: Increase of about 10% weight at about 90% relative | hygroscopic | form a new hydrate crystal phase at high % RH values |
| O.O=C(COC[C@H]1CC[C@H](COC(=O)N(c2ccccc2)c2ccc(Cl)cc2)CC1)NCCS(=O)(=O)[O-].O=C(COC[C@H]1CC[C@H](COC(=O)N(c2ccccc2)c2ccc(Cl)cc2)CC1)NCCS(=O)(=O)[O-].[Mg+2] [Compound Ia magnesium salt hydrate, magnesium 2-(2-(((1r,4r)-4-(((4-chlorophenyl)(phenyl)carbamoyloxy)methyl)cyclohexyl)methoxy)acetamido)ethanesulfonate hydrate] | 1.2 % by weight | FIG. 14: Increase of 1.2% weight at about 90% relative humidity | slightly hygroscopic |  |
| O.O=C(COC[C@H]1CC[C@H](COC(=O)N(c2ccccc2)c2ccc(Cl)cc2)CC1)NCCS(=O)(=O)[O-].[K+] [Compound Ia potassium salt hydrate, potassium 2-(2-(((1r,4r)-4-(((4-chlorophenyl)(phenyl)carbamoyloxy)methyl)cyclohexyl)methoxy)acetamido)ethanesulfonate hydrate] | 3-4 % by weight |  | slightly hygroscopic |  |
| O=C(COC[C@H]1CC[C@H](COC(=O)N(c2ccccc2)c2ccc(Cl)cc2)CC1)NCCS(=O)(=O)O [Compound Ia TRIS salt, 2-(2-(((1r,4r)-4-(((4-Chlorophenyl)(phenyl)carbamoyloxy)methyl)cyclohexyl)methoxy)acetamido)ethanesulfonic Acid] | about 1.2 % by weight |  | slightly hygroscopic |  |
